Laboratory results taken from US7183415B2, “Quinoline compound” (Takeda Pharmaceutical Company Limited, priority 2001, dated 2007).

| Compound | melting point |
| --- | --- |
| Cc1c(NC(=O)c2ccc(-c3ccc(Cl)cc3)nc2)ccc2cc(CN3CCCC3)cnc12 [Example 95, 6-(4-chlorophenyl)-N-[8-methyl-3-(1-pyrrolidinylmethyl)-7-quinolinyl]nicotinamide] | 234 to 236 °C |
| COc1ccc(COc2ccc(C(=O)Nc3ccc4cc(CN5CCCC5)cnc4c3C)cc2)cc1 [Example 126, 4-[(4-methoxybenzyl)oxy]-N-[8-methyl-3-(1-pyrrolidinylmethyl)-7-quinolinyl]benzamide] | 192 to 193 °C |
| CCNC(=O)CC1CCN(Cc2cnc3cc(NC(=O)c4ccc(-c5ccc(F)cc5)cc4)c(C)cc3c2)CC1 [Example 267, N-[3-({4-[2-(ethylamino)-2-oxoethyl]-1-piperidinyl}methyl)-6-methyl-7-quinolinyl]-4′-fluoro[1,1′-biphenyl]-4-carboxamide] | 251 °C |
| Cc1c(NC(=O)c2ccc(-c3ccc4c(c3)OCO4)cc2)ccc2cc(CN3CCCC3)cnc12 (hydrate or solvate) [Example 105, 4-(1,3-benzodioxol-5-yl)-N-[8-methyl-3-(1-pyrrolidinylmethyl)-7-quinolinyl]benzamide] | 171 to 172 °C |
| Cc1cc2cc(CN3CCC(C(=O)N4CCCCC4)CC3)cnc2cc1NC(=O)c1ccc(-c2ccc(F)cc2)cc1 [Example 271, 4′-fluoro-N-(6-methyl-3-{[4-(1-piperidinylcarbonyl)-1-piperidinyl]methyl}-7-quinolinyl)[1,1′-biphenyl]-4-carboxamide] | 250 °C |
| O=C(Nc1ccc2cc(CN3CCCC3)cnc2c1)N1CCC(c2ccc(Cl)cc2)CC1 [Example 16, 4-(4-chlorophenyl)-N-[3-(1-pyrrolidinylmethyl)-7-quinolinyl]-1-piperidine carboxamide] | 249 to 251 °C |
| Cc1cc2cc(CN3CCC(CC(=O)N4CCCCC4)CC3)cnc2cc1NC(=O)c1ccc(-c2ccc(F)cc2)cc1 [Example 265, 4′-fluoro-N-[6-methyl-3-({4-[2-oxo-2-(1-piperidinyl)ethyl]-1-piperidinyl}methyl)-7-quinolinyl][1,1′-biphenyl]-4-carboxamide] | 216 °C |
| Cc1cc2cc(CN3CCCC3)cnc2cc1NC(=O)c1ccc(-c2ccc(Cl)cc2)cc1F [Example 230, 4′-chloro-3-fluoro-N-[6-methyl-3-(1-pyrrolidinylmethyl)-7-quinolinyl][1,1′-biphenyl]-4-carboxamide] | 195 to 198 °C |
| Cc1c(NC(=O)c2ccc(OCc3ccccc3)cc2)ccc2cc(CN3CCCCC3)cnc12 [Example 161, 4-(benzyloxy)-N-[8-methyl-3-(1-piperidinylmethyl)-7-quinolinyl]benzamide] | 186 to 187 °C |
| CCNC(=O)CCCC1CCN(Cc2cnc3cc(NC(=O)c4ccc(-c5ccc(F)cc5)cc4)ccc3c2)CC1 [Example 47, N-[3-({4-[4-(ethylamino)-4-oxobutyl]-1-piperidinyl}methyl)-7-quinolinyl]-4′-fluoro[1,1′-biphenyl]-4-carboxamide] | 209 to 213 °C |
| CCN(CC)Cc1cnc2cc(NC(=O)c3ccc(-c4ccc(Cl)cc4)cc3)c(OC)cc2c1 [Example 22, 4′-chloro-N-{3-[(diethylamino)methyl]-6-methoxy-7-quinolinyl}[1,1′-biphenyl]-4-carboxamide] | 271 °C (dec.) |
| O=C(Nc1cc2ncc(CN3CCCC3)cc2cc1N1CCCC1)c1ccc(Br)cc1 [Example 63, 4-bromo-N-[6-(1-pyrrolidinyl)-3-(1-pyrrolidinylmethyl)-7-quinolinyl]benzamide] | 171 to 173 °C |
| Cc1c(NC(=O)c2ccc(C3CCCCC3)cc2)ccc2cc(CN3CCCC3)cnc12 [Example 122, 4-cyclohexyl-N-[8-methyl-3-(1-pyrrolidinylmethyl)-7-quinolinyl]benzamide] | 178 to 179 °C |
| Cc1c(NC(=O)c2ccc(-c3ccc(F)cc3)cc2F)ccc2cc(CN3CCCC3)cnc12 [Example 145, 3,4′-difluoro-N-[8-methyl-3-(1-pyrrolidinylmethyl)-7-quinolinyl][1,1′-biphenyl]-4-carboxamide] | 176 to 178 °C |
| CCNC(=O)C1CCN(Cc2cnc3cc(NC(=O)c4ccc(-c5ccc(F)cc5)cc4)c(C)cc3c2)CC1 [Example 273, N-ethyl-1-[(7-{[(4′-fluoro-1,1′-biphenyl-4-yl)carbonyl]amino}-6-methyl-3-quinolinyl)methyl]piperidine-4-carboxamide] | 254 °C |
| Cc1ccc(-c2ccc(C(=O)Nc3ccc4cc(CN5CCCC5)cnc4c3)cn2)cc1 [Example 10, 6-(4-methylphenyl)-N-[3-(1-pyrrolidinylmethyl)-7-quinolinyl]nicotinamide] | 226 to 228 °C |

Next, values leading:

| melting point | Compound |
| --- | --- |
| 170 to 174 °C | Cc1cc2cc(CN3CCCCCC3)cnc2cc1NC(=O)c1ccc(-c2ccc(F)cc2)cc1 [Example 251, N-[3-(1-azepanylmethyl)-6-methyl-7-quinolinyl]-4′-fluoro[1,1′-biphenyl]-4-carboxamide] |
| 188 °C (dec.) | O=C(Nc1cc2ncc(CN3CCCC3)cc2cc1Cl)c1ccc(-c2ccc(Cl)cc2)cc1 [Example 25, 4′-chloro-N-[6-chloro-3-(1-pyrrolidinylmethyl)-7-quinolinyl][1,1′-biphenyl]-4-carboxamide] |
| 206 to 208 °C | O=C(Nc1cc2ncc(CN3CCCC3)cc2cc1F)c1ccc(-c2ccccc2)cc1 [Example 52, N-[6-fluoro-3-(1-pyrrolidinylmethyl)-7-quinolinyl][1,1′-biphenyl]-4-carboxamide] |
| 209 to 212 °C | O=C(Nc1cc2ncc(CN3CCCC3)cc2cc1F)c1ccc(-c2ccc(C(F)(F)F)cc2)cc1 [Example 55, N-[6-fluoro-3-(1-pyrrolidinylmethyl)-7-quinolinyl]-4′-(trifluoromethyl)[1,1′-biphenyl]-4-carboxamide] |
| 142 to 144 °C | COc1c(NC(=O)c2ccc(-c3ccc(F)cc3)cc2)ccc2cc(CN3CCCC3)cnc12 [Example 81, 4′-fluoro-N-[8-methoxy-3-(1-pyrrolidinylmethyl)-7-quinolinyl][1,1′-biphenyl]-4-carboxamide] |
| 158 to 159 °C | Cc1c(NC(=O)c2ccc(-c3cccc(F)c3)cc2)ccc2cc(CN3CCCC3)cnc12 [Example 112, 3′-fluoro-N-[8-methyl-3-(1-pyrrolidinylmethyl)-7-quinolinyl][1,1′-biphenyl]-4-carboxamide] |
| 200 to 202 °C | O=C(Nc1cc2ncc(CN3CCCC3)cc2cc1F)c1ccc(-c2ccc(F)cc2)cc1F [Example 60, 3,4′-difluoro-N-[6-fluoro-3-(1-pyrrolidinylmethyl)-7-quinolinyl][1,1′-biphenyl]-4-carboxamide] |
| 209 °C | Cc1ccc(-c2ccc(C(=O)Nc3ccc4cc(CN5CCCCCC5)cnc4c3)cc2)cc1 [Example 28, N-[3-(1-azepanylmethyl)-7-quinolinyl]-4′-methyl[1,1′-biphenyl]-4-carboxamide] |
| 179 to 181 °C | Cc1ccc(-c2ccc(C(=O)Nc3cc4ncc(CN5CCCC5)cc4cc3F)c(F)c2)cc1 [Example 61, 3-fluoro-N-[6-fluoro-3-(1-pyrrolidinylmethyl)-7-quinolinyl]-4′-methyl[1,1′-biphenyl]-4-carboxamide] |
